Source: ChEMBL document CHEMBL1141680, “Identification of ring-fused pyrazolo pyridin-2-ones as novel poly(ADP-ribose)polymerase-1 inhibitors” (Bioorg Med Chem Lett, 2008)

Key:
[1] = target: Poly [ADP-ribose] polymerase 1 (Homo sapiens, UniProt P09874)
Description: Inhibition of PARP1 in human HeLa cells by fluid scintillation counting using [adenylated-32P]NAD as substrate

PARP1 = experiment: Therapeutic index, ratio of LD40 for human HCT116 cells to drug concentration that reduced half the amount of streptozotocin required to inhibit PARP1-mediated 90% human HCT116 cell growth; assay type: cell-based, HCT-116; details: read-out: TI
HCT-116 = experiment: Cytotoxicity against human HCT116 cells; assay type: cell-based

Chain of Poly [ADP-ribose] polymerase 1 (P09874 whole entry): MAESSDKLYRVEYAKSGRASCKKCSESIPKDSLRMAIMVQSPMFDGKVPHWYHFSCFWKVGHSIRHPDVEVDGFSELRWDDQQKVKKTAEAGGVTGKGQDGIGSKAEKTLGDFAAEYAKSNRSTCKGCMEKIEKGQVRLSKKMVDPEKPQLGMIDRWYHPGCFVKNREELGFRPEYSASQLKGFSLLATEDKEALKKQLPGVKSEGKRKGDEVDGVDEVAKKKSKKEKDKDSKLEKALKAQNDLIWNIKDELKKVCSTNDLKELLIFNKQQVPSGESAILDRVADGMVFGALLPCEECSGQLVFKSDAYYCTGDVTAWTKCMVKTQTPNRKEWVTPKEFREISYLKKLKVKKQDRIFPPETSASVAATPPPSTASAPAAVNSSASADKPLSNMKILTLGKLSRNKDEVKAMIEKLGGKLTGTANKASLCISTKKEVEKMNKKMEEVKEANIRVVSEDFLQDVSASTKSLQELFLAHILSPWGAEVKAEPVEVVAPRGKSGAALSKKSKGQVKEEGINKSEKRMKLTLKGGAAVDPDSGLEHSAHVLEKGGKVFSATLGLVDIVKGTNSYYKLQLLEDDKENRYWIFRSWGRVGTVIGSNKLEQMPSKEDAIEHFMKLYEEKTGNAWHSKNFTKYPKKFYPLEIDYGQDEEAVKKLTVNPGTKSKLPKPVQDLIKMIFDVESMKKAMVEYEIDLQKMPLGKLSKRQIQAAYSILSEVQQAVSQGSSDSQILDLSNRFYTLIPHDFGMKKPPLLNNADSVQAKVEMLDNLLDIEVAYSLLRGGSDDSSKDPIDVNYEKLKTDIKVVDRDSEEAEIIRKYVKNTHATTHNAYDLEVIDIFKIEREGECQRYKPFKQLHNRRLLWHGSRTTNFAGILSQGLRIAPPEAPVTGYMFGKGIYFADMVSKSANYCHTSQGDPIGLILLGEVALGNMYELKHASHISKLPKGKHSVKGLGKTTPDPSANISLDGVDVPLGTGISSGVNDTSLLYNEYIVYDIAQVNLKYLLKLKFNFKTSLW

Structure (SMILES)	IC50 [1] [nM]	selectivity ratio (PARP1)	LD40 (HCT-116) [µM]
Cc1cccc2c1CCNC2=O	160	–	–
COc1ccc(-c2nc3c(C(N)=O)cccc3[nH]2)cc1	60	–	–
Cc1nn(C)c2[nH]c(=O)c3c(c12)CSC3	92.7	> 1.8	> 50
Cc1nn(C)c2nc3c(c(O)c12)CSC3	> 10000	–	–
Cn1nc(-c2ccccc2)c2c3c(c(=O)[nH]c21)CCC3	106	1.6	42.5
Cn1nc(-c2ccccc2)c2c3c(c(=O)[nH]c21)CSC3	110	1.4	21.2
Cc1nn(C(C)(C)C)c2[nH]c(=O)c3c(c12)CSC3	1840	–	–
Cn1nc(-c2cccs2)c2c3c(c(=O)[nH]c21)CCC3	149	3.6	11.2
Cc1nn(C)c2[nH]c(=O)c3c(c12)CCC3	29.8	1.4	27.2

Continued, in another order:

IC50 [1] [nM]	Structure (SMILES)	selectivity ratio (PARP1)	LD40 (HCT-116) [µM]
2.2	Cc1nn(C)c2[nH]c(=O)c3c(c12)CCCC3	> 6.6	> 12.5
> 10000	Cc1nn(-c2ccccc2)c2[nH]c(=O)c3c(c12)CCC3	–	–
> 10000	Cc1nn(C)c2[nH]c3c(c(=O)c12)CCCC3	–	–
6.9	Cn1nc(-c2cccs2)c2c3c(c(=O)[nH]c21)CCCC3	> 32.9	> 12.5
428	Cn1nc(-c2cccs2)c2c3c(c(=O)[nH]c21)CSC3	–	–
9720	Cc1nn(-c2ccccc2)c2[nH]c(=O)c3c(c12)CCCC3	–	–
> 10000	O=c1[nH]c2c(c(-c3ccccc3)nn2-c2ccccc2)c2c1CCCC2	–	–
> 10000	O=c1[nH]c2c(c(-c3ccccc3)nn2-c2ccccc2)c2c1CCC2	–	–
519	Cc1nn(C(C)(C)C)c2[nH]c(=O)c3c(c12)CCC3	–	–
> 10000	Cc1nn(-c2ccccc2)c2[nH]c(=O)c3c(c12)CSC3	–	–
7.3	Cn1nc(-c2ccccc2)c2c1NC(=O)C1CCCCC21 (configuration not stated)	19.7	7.5
7000	Cc1nn(C)c2[nH]c3c(c(=O)c12)CCC3	–	–
